The nature of data set [1]: In vitro skin penetration and metabolism, fresh viable pig skin on static Franz cells. The text has this: Fresh viable pig skin (without hot steam treatment, by-product from meat industry) was obtained from a local, commercial butcher (Hammoor, Germany). The back skin was from female pigs (bred from “Dänische Landrasse” (female) and Pietrain (male) pigs, ~130 days old, 100 kg body weight). Pig skin samples were gently dry-shaved and washed with water before use. For the experiment, 2 replicate discs from each of 3 donors were used.
Skin of full-thickness was mounted on static Franz cells with a 4.9 cm² application area. The receptor compartment of the diffusion cell was filled with approx. 5 ml RF (1% BSA, 0.9% NaCl, 0.05% gentamycin sulfate in water), above a magnetic stirrer set to low rotation. […] The experiment was conducted using non-occluded conditions.
The dermal absorption was calculated as the total amount present within epidermis (without the amount in the total SC strips), dermis and RF.

In a further data set the test system is TSHR. Also on record: method as in ToxCast database. To be noted: ref ToxCast database; cited from earlier work.
Data set [2] relates to estrogen receptor. Also on record: method as in ToxCast database. Particulars: ref ToxCast database; cited from earlier work.
The subject of data set [3] is estrogen receptor. More on the design: method as in ToxCast database. To be noted: ref ToxCast database; cited from earlier work. This is another data set of the same source.
For data set [4] the following is noted: KS2; cited from earlier work.
Data set [5] has as its system Thyroid (TR and TPO only). More on the design: method as in ToxCast. Particulars: ref ToxCast, cited from earlier work.
Data set [6] deals with estrogen receptor. Also on record: method as in ToxCast database. To be noted: ref ToxCast database, cited from earlier work.
Data set [7] relates to thyroid pathway. More on the design: method as in ToxCast database. Particulars: ref ToxCast database; cited from earlier work.
Data set [8] deals with thyroid pathway. Also on record: method as in ToxCast database. Particulars: ref ToxCast database; cited from earlier work. The source holds these as a separate data set.
A further data set relates to rats. Particulars: highest dose tested; KS2; cited from earlier work.
In data set [9] the test system is thyroid pathway. More on the design: method as in ToxCast database. To be noted: ref ToxCast database; cited from earlier work. The source holds these as a separate data set.
Data set [10] concerns estrogen receptor. More on the design: method as in ToxCast database. Particulars: ref ToxCast database; cited from earlier work. This is another data set of the same source.
A further data set concerns Aromatase. More on the design: method as in ToxCast database. Particulars: ref ToxCast database; cited from earlier work.
Data set [11] deals with estrogen receptor. More on the design: method as in ToxCast database. To be noted: ref ToxCast database; cited from earlier work. The source holds these as a separate data set.
Data set [12] relates to estrogen receptor. More on the design: method as in ToxCast database. Particulars: ref ToxCast database; cited from earlier work. This is another data set of the same source.
The conditions of data set [13]: ref PubChem or the ECHA database; cited from earlier work.
Setting [14] is: 24 h after application of 0.5% BSal in formulation, mean ± SD, n = 6.

As to `O=C(O)c1ccccc1` [BA, benzoic acid], the “Dermal absorption of individual analytes” value in data set [1] (24 h, epidermis + dermis + receptor fluid) is 1.2 ± 0.7 percentage of the applied dose. In addition, the Total recovery in data set [1] (24 h after application of 0.5% BSal in formulation, SA corrected by the amount of SA present in the formulation) is 19.8 ± 17.2 percentage of the applied dose. Moreover, in data set [1] (setting [14]), the Dermis is 1.2 ± 0.7 percentage of the applied dose, the Epidermis entry is recorded as “< LOQ*”, the Receptor fluid entry is recorded as “< LOQ*” and the Stratum corneum is on record as 16.8 ± 16.3 percentage of the applied dose. Also, the Surface in data set [1] (24 h after application of 0.5% BSal in formulation, mean ± SD, n = 6 skin discs (three donors)) is given as 1.7 ± 1.2 percentage of the applied dose. In the data set on TSHR, the “Thyroid pathway Regulation of transcription factor activity (TSHR): Call” value is “Negative”. The “Estrogen pathway Dimerisation: Call” value with estrogen receptor [2] was “Negative”. Further, the “Estrogen pathway receptor binding: Call” value in the data set with estrogen receptor [3] is “Negative”. Moreover, the “Developmental Toxicity NOAEL” value in data set [4] was “NOAEL 1306 mg/kg bw”. Also, the “Thyroid (TR and TPO only): Experimental Data (call)” value in data set [5] (Tier 0) is “Negative”. The “Thyroid (TR and TPO only): assays active / assays” value in data set [5] is 0/12 active. In addition, the “Estrogen pathway Reporter protein Agonist: Call” value in the data set on estrogen receptor [6] is “Positive”. Moreover, the AC50 (usually the concentration giving half of the maximal activity seen) on estrogen receptor [6] (read-out: Estrogen pathway Reporter protein Agonist: AC50) is 7.54 µM. Besides, the “Thyroid pathway Reporter protein Agonist: Call” value in the data set on thyroid pathway [7] was “Negative”. The “Thyroid pathway mRNA induction: Call” value with thyroid pathway [8] is recorded as “Negative”. In addition, the “Reproductive toxicity NOAEL” value in the data set on rats was “NOAEL 900 mg/kg bw (highest dose tested)”. The “Thyroid pathway Reporter protein Antagonist: Call” value in the data set on thyroid pathway [9] is “Negative”. Moreover, in the data set on estrogen receptor [10], the “Estrogen pathway Cell Proliferation: Call” value is listed as “Negative”. In addition, the “Steroidogenesis Aromatase: Call” value in the data set on Aromatase is given as “Negative”. Also, the “Estrogen pathway mRNA induction: Call” value with estrogen receptor [11] is given as “Negative”. In the data set on estrogen receptor [12], the “Estrogen pathway Reporter protein Antagonist: Call” value is “Negative”. For the same compound, the Vapor pressure in data set [13] is 0.1 Pa.
